In patent publication US10561606B2, “Injectable long-acting local anesthetic semi-solid gel formulations” (Mira Pharma Corporation, priority 2017, dated 2020):
Structures can show the parent of a compound that is named as a salt. Values belong to the compound of their own block, whether it stands above or below them.

Legend:
[1] = cited from earlier work
sciatic nerve = settings: cited from earlier work
[2] = Solubility/loading of local anesthetic in oils, castor oil and semi-solid vehicle; assay type: physicochemical
[3] = limited by low solubility in the vehicle; cited from earlier work
[4] = BASF MSDS sheet; cited from earlier work
[5] = in poly(lactic acid-co-castor oil), single injection

solubility in corn oil [2]: 2.8 wt %
solubility in olive oil [2]: 2.5 wt %
solubility in sesame oil [2]: 3.0 wt %
solubility in typical vegetable oils [2]: less than 3 wt %
solubility in vegetable oil [2]: 2.5 wt %
SMILES: CCCCN1CCCCC1C(=O)Nc1c(C)cccc1C (stereo not drawn) [bupivacaine]
release of bupivacaine from the oil ([1]; fractionated coconut oil, in less than two hours, rotating dialysis cell): 80%
stored bupivacaine released during one week ([1]; from poly(lactic acid-co-castor oil)): 60%
incorporated drug released over one week in vitro ([1]; from poly(sebacic-co-ricinoleic acid)): 70%
sciatic nerve blockade prolonged to (sciatic nerve; 10% (w/v) in poly(sebacic-co-ricinoleic acid), from 8 hours): 30 h
duration of nerve block (sciatic nerve; in poly(lactic acid-co-castor oil) at 10% (w/v)): 1 to 2 days
duration of sensory blockade (sciatic nerve; in poly(lactic acid-co-castor oil) at 15% (w/v)): 96 h
motor blockade (sciatic nerve; [5]): 64 h
sensory blockade (sciatic nerve; [5]): 96 h

SMILES: Cc1cccc(C)c1NC(=O)C1CCCCN1C (stereo not drawn) [mepivacaine]
amount that can be loaded into polyorthoester vehicle [3]: about 3 wt %

SMILES: CCCCN1CCCCC1C(=O)Nc1c(C)cccc1C (stereo not drawn) [bupivacaine hydrochloride]
water solubility [4]: 600 mg/mL
